Data published in patent publication US20110117125A1, “COMPOSITIONS AND METHODS FOR THE DELIVERY OF NUCLEIC ACIDS” (TEKMIRA PHARMACEUTICALS CORPORATION, priority 2008, published 2011).

Legend:
[1] = system: Factor VII; assay: Factor VII knockdown in mice by FVII siRNA lipid particles; type: in vivo; conditions: 40/10/40/10 aminolipid/DSPC/Chol/PEG-S-DMG, IV, C57BL/6 mice, 24 hours post-injection
Experimental: Factor VII (FVII), a prominent protein in the coagulation cascade, is synthesized in the liver (hepatocytes) and secreted into the plasma. FVII levels in plasma can be determined by a simple, plate-based colorimetric assay. As such, FVII represents a convenient model for determining siRNA-mediated downregulation of hepatocyte-derived proteins, as well as monitoring plasma concentrations and tissue distribution of the nucleic acid lipid particles and siRNA.
FVII activity was evaluated in FVII siRNA-treated animals at 24 hours after intravenous (bolus) injection in C57BL/6 mice. FVII was measured using a commercially available kit (Biophen FVII Kit™; Aniara Corp., Mason, Ohio), following the manufacturer's instructions at a microplate scale. FVII reduction was determined against untreated control mice, and the results were expressed as % Residual FVII. […]
The MTD for these studies was set as the lowest dose causing >7% decrease in body weight and a>200-fold increase in alanine aminotransferase (ALT), a clinical chemistry marker with good specificity for liver damage in rodents. The ED50 was determined from FVII dose-activity curves.
The ability of various lipid formulations to knockdown Factor VII expression was determined in a liver model using Factor VII siRNA, in order to evaluate the impact of aminolipid linker chemistry. […]

[2] = ODN 14 compared with ODN 1; cited from earlier work

Compound | improvement of dose (mg/kg) to achieve 50% Factor VII reduction versus ester linkage (DLinDAP lipid) [1] | improvement of dose (mg/kg) to achieve 50% Factor VII reduction versus ether linkage (DLinDMA lipid) [1] | immunostimulatory / biological activity [2]
CCCCC/C=C\C/C=C\CCCCCCCCC1(CCCCCCCC/C=C\C/C=C\CCCCC)OCC(CN(C)C)O1 (stereo not shown) [DLin-K-DMA, 2,2-Dilinoleyl-4-dimethylaminomethyl-[1,3]-dioxolane] | approximately 100 -fold | approximately 10 -fold | 
5′-TAACGTTGAGGGGCAT-3 (DNA, backbone and methylation of C not given here) [ODN 1] |  |  | ODN 14 is a 15-mer oligonucleotide and ODN 1 is the same oligonucleotide having a thymidine added onto the 5′ end making ODN 1 into a 16-mer. No difference in biological activity between ODN 14 and ODN 1 has been detected and both exhibit similar immunostimulatory activity (Mui et al., 2001)
5′-AACC GTT GAG GGG CAT-3′ (DNA AACCGTTGAGGGGCAT; DNA, backbone and methylation of C not given here) [ODN 14] |  |  | ODN 14 is a 15-mer oligonucleotide and ODN 1 is the same oligonucleotide having a thymidine added onto the 5′ end making ODN 1 into a 16-mer. No difference in biological activity between ODN 14 and ODN 1 has been detected and both exhibit similar immunostimulatory activity (Mui et al., 2001)
